Laboratory results published in patent US11572337B2, “Antibacterial agents: arylalkylcarboxamido phloroglucinols” (Rutgers, The State University of New Jersey, priority 2018, dated 2023).
Values after ≈ are worked out from the molar mass of the structure shown.

Key:
[1] = target: E. coli RNA polymerase σ70 holoenzyme (Escherichia coli (strain K12), UniProt P0A8T7+P0A8V2); test: Fluorescence-detected assay of inhibition of Escherichia coli RNA polymerase; format: biochemical; settings: T4 N25 promoter DNA, RiboGreen fluorescence, read-out: RNAP-inhibitory activity E. coli RNAP IC50
Experimental: (§1) Fluorescence-detected RNA polymerase assays with E. coli RNA polymerase were performed by a modification of the procedure of Kuhlman et al., 2004 [Kuhlman, P., Duff, H. & Galant, A. (2004) A fluorescence-based assay for multisubunit DNA-dependent RNA polymerases. Anal. Biochem. 324, 183-190]. Reaction mixtures contained […]: […] test salt, 75 nM E. coli RNA polymerase σ^70 holoenzyme, 20 nM 384 bp DNA fragment containing the bacteriophage T4 N25 promoter, 100 μM ATP, 100 μM GTP, 100 μM UTP, 100 μM CTP, 50 mM Tris-HCl, pH 8.0, 100 mM KCl, 10 mM MgCl2, 1 mM DTT, 10 μg/ml bovine serum albumin, and 5.5% glycerol. Reaction components other than DNA and NTPs were pre-incubated for 10 min at 37° C. Reactions were carried out by addition of DNA and incubation for 5 min at 37° C., followed by addition of NTPs and incubation for 60 min at 37° C. DNA was removed by addition of 1 μl 5 mM CaCl2 and 2 U DNaseI (Ambion, Inc.), followed by incubation for 90 min at 37° C. RNA was quantified by addition of 100 μI RiboGreen RNA Quantitation Reagent (Invitrogen, Inc.; 1:500 dilution in Tris-HCl, pH 8.0, 1 mM EDTA), followed by incubation for 10 min at 25° C., followed by measurement of fluorescence intensity [excitation wavelength=485 nm and emission wavelength=535 nm; QuantaMaster QM1 spectrofluorometer (PTI, Inc.)]. IC50 is defined as the concentration of inhibitor resulting in 50% inhibition of RNA polymerase activity.

[2] = system: Staphylococcus aureus ATCC 12600; test: Inhibition of growth of Staphylococcus aureus (spiral gradient endpoint MIC assay); format: cell-based; settings: ATCC12600, Mueller-Hinton II cation-adjusted agar, 16 h at 37° C., read-out: in vitro antibacterial activity S. aureus ATCC12600 MIC
Text: Minimum inhibitory concentrations (MICs for Staphylococcus aureus ATCC 12600 were quantified using spiral gradient endpoint assays, essentially as described [Wallace, A. and Corkill, J. (1989) Application of the spiral plating method to study antimicrobial action. J. Microbiol. Meths. 10, 303-310; Paton, J., Holt, A., and Bywater, M. (1990) Measurement of MICs of antibacterial agents by spiral gradient endpoint compared with conventional dilution methods. Int. I Exp. Clin. Chemother. 3, 31-38; Schalkowsky S. (1994) Measures of susceptibility from a spiral gradient of drug concentrations. Adv. Exp. Med. Biol. 349, 107-120]. Assays employed exponential-gradient plates containing 150 mm×4 mm Mueller-Hinton II cation-adjusted agar and 0.4-100 μg/ml of test salt. Plates were prepared using an Autoplate 4000 spiral plater (Spiral Biotech, Inc.). Saturated overnight cultures were swabbed radially onto plates, and plates were incubated for 16 h at 37° C. For each culture, the streak length was measured using a clear plastic template (Spiral Biotech, Inc.), the test-salt concentration at the streak endpoint was calculated using the program SGE (Spiral Biotech, Inc.), and the MIC was defined as the calculated test-salt concentration at the streak endpoint.

[3] = target: S. aureus RNA polymerase core enzyme + S. aureus σA (Staphylococcus aureus (strain NCTC 8325 / PS 47), UniProt P47768+Q2G0N5); test: Fluorescence-detected assay of inhibition of Staphylococcus aureus RNA polymerase; format: biochemical; settings: T4 N25 promoter DNA, RiboGreen fluorescence, read-out: RNAP-inhibitory activity S. aureus RNAP IC50
Experimental: as §1
Fluorescence-detected RNA polymerase assays with S. aureus RNA polymerase were performed as in Example 2.1, using reaction mixtures containing (20 μl): 0-100 nM test salt, 75 nM S. aureus RNA polymerase core enzyme, 300 nM S. aureus σ^A, 20 nM 384 bp DNA fragment containing the bacteriophage T4 N25 promoter, 100 μM ATP, 100 μM GTP, 100 μM UTP, 100 μM CTP, 40 mM Tris-HCl, pH 8.0, 80 mM NaCl, 5 mM MgCl2, 2.5 mM DTT, and 12.7% glycerol. IC50 is defined as the concentration of inhibitor resulting in 50% inhibition of RNA polymerase activity.

Structure (SMILES) | IC50 [1] | MIC [2] | IC50 [3]
O=C(NCc1ccc(Cl)cc1)c1c(O)cc(O)cc1O [Compound 0MTK107, N-(4-chlorobenzyl)-2,4,6-trihydroxybenzamide] | 400 nM | > 40 µg/mL | 2000 nM
O=C(NCCc1ccc(Cl)cc1)c1c(O)cc(O)cc1O [Compound 0MTK127, N-(4-chlorophenethyl)-2,4,6-trihydroxybenzamide] | 370 nM | 20 µg/mL (≈ 65 µM) | 1500 nM
CN(CCc1ccc(Cl)cc1)C(=O)c1c(O)cc(O)cc1O [Compound 0MTK128, N-(4-chlorophenethyl)-2,4,6-trihydroxy-N-methylbenzamide] | 970 nM | > 20 µg/mL | > 100000 nM
CC(C)(CNC(=O)c1c(O)cc(O)cc1O)c1ccc(Cl)cc1 [Compound 0MTK146, N-(2-(4-chlorophenyl)-2-methylpropyl)-2,4,6-trihydroxybenzamide] | 690 nM | 22 µg/mL (≈ 65.5 µM) | 2700 nM
O=C(NCc1ccc(Oc2ccccc2)cc1)c1c(O)cc(O)cc1O [Compound 0MTK149, 2,4,6-trihydroxy-N-(4-phenoxybenzyl)benzamide] | 140 nM | 19 µg/mL (≈ 54.1 µM) | 1500 nM
O=C(NCc1ccc(Oc2ccc(F)cc2)cc1)c1c(O)cc(O)cc1O [Compound 0MTK154, N-(4-(4-fluorophenoxy)benzyl)-2,4,6-trihydroxybenzamide] | 420 nM | 15 µg/mL (≈ 40.6 µM) | 3500 nM
O=C(NCc1ccc(Oc2ccc(F)cc2)cc1C(F)(F)F)c1c(O)cc(O)cc1O [Compound 0MTK155, N-(4-(4-fluorophenoxy)-2-(trifluoromethyl)benzyl)-2,4,6-trihydroxybenzamide] | 790 nM | 8.1 µg/mL (≈ 18.5 µM) | 8100 nM
O=C(NCCc1ccc(Oc2ccc(F)cc2)cc1)c1c(O)cc(O)cc1O [Compound 0MTK156, N-(4-(4-fluorophenoxy)phenethyl)-2,4,6-trihydroxybenzamide] | 820 nM | 8.3 µg/mL (≈ 21.6 µM) | 5500 nM
O=C(NCc1ccc(Oc2ccccc2)cc1C(F)(F)F)c1c(O)cc(O)cc1O [Compound 0MTK158, 2,4,6-trihydroxy-N-(4-phenoxy-2-(trifluoromethyl)benzyl)benzamide] | 220 nM | 5.4 µg/mL (≈ 12.9 µM) | 1800 nM
O=C(NCc1ccc(Oc2ccc(F)cc2)c(Cl)c1)c1c(O)cc(O)cc1O [Compound 0MTK174, N-(3-chloro-4-(4-fluorophenoxy)benzyl)-2,4,6-trihydroxybenzamide] | 410 nM | 8.6 µg/mL (≈ 21.3 µM) | 14000 nM
O=C(NCc1ccc(Oc2ccc(F)cc2)c(F)c1)c1c(O)cc(O)cc1O [Compound 0MTK175, N-(3-fluoro-4-(4-fluorophenoxy)benzyl)-2,4,6-trihydroxybenzamide] | 450 nM | 8.6 µg/mL (≈ 22.2 µM) | 7000 nM
Cc1cc(Oc2ccc(F)cc2)ccc1CNC(=O)c1c(O)cc(O)cc1O [Compound 0MTK176, N-(4-(4-fluorophenoxy)-2-methylbenzyl)-2,4,6-trihydroxybenzamide] | 390 nM | 5.3 µg/mL (≈ 13.8 µM) | 12000 nM
COc1cc(Oc2ccc(F)cc2)ccc1CNC(=O)c1c(O)cc(O)cc1O [Compound 0MTK178, N-(4-(4-fluorophenoxy)-2-methoxybenzyl)-2,4,6-trihydroxybenzamide] | 610 nM | 7.8 µg/mL (≈ 19.5 µM) | 18000 nM
O=C(NCCc1ccc(Oc2cc(Cl)cc(Cl)c2)cc1)c1c(O)cc(O)cc1O [Compound 0MTK180, N-(4-(3,5-dichlorophenoxy)phenethyl)-2,4,6-trihydroxybenzamide] | 830 nM | 1.8 µg/mL (≈ 4.14 µM) | 6600 nM
O=C(NCc1ccc(Oc2ccc(F)cc2)cc1Cl)c1c(O)cc(O)cc1O [Compound 0MTK181, N-(2-chloro-4-(4-fluorophenoxy)benzyl)-2,4,6-trihydroxybenzamide] | 1400 nM | 6.9 µg/mL (≈ 17.1 µM) | > 60000 nM
O=C(NCCc1ccc(Oc2ccc(Cl)cc2)cc1)c1c(O)cc(O)cc1O [Compound 0MTK183, N-(4-(4-chlorophenoxy)phenethyl)-2,4,6-trihydroxybenzamide] | 1700 nM | 6.1 µg/mL (≈ 15.3 µM) | 14000 nM
O=C(NCCCc1ccc(Cl)cc1)c1c(O)cc(O)cc1O [Compound 0MTK204, N-(3-(4-chlorophenyl)propyl)-2,4,6-trihydroxybenzamide] | 7000 nM | 27 µg/mL (≈ 83.9 µM) | 8000 nM
O=C(NCCc1ccc(C(F)(F)F)cc1)c1c(O)cc(O)cc1O [Compound 0MTK207, 2,4,6-trihydroxy-N-(4-(trifluoromethyl)phenethyl)benzamide] | 7400 nM | 19 µg/mL (≈ 55.7 µM) | 13000 nM
COc1ccc(Oc2ccc(CCNC(=O)c3c(O)cc(O)cc3O)cc2)cc1 [Compound 0MTK260, 2,4,6-trihydroxy-N-(4-(4-methoxyphenoxy)phenethyl)benzamide] | 780 nM | – | 6200 nM
O=C(NCCc1ccc(Oc2ccc(N3CCOCC3)cc2)cc1)c1c(O)cc(O)cc1O [Compound 0MTK261, 2,4,6-trihydroxy-N-(4-(4-morpholinophenoxy)phenethyl)benzamide] | 1500 nM | – | 7500 nM
O=C(NCCc1ccc(Oc2cncnc2)cc1)c1c(O)cc(O)cc1O [Compound 0MTK262, 2,4,6-trihydroxy-N-(4-(pyrimidin-5-yloxy)phenethyl)benzamide] | 1500 nM | – | 7400 nM
O=C(NCCc1ccc(Oc2cccc(N3CCOCC3)c2)cc1)c1c(O)cc(O)cc1O [Compound 0MTK263, 2,4,6-trihydroxy-N-(4-(3-morpholinophenoxy)phenethyl)benzamide] | 1300 nM | – | 7100 nM
O=C(NCCc1ccc(Oc2cccnc2)cc1)c1c(O)cc(O)cc1O [Compound 0MTK264, 2,4,6-trihydroxy-N-(4-(pyridin-3-yloxy)phenethyl)benzamide] | 820 nM | – | 3800 nM
O=C(NCCc1ccc(Oc2ccncc2)cc1)c1c(O)cc(O)cc1O [Compound 0MTK265, 2,4,6-trihydroxy-N-(4-(pyridin-4-yloxy)phenethyl)benzamide] | 1300 nM | – | 6400 nM
O=C(NCCc1ccc(Oc2ccc(-c3ccncc3)cc2)cc1)c1c(O)cc(O)cc1O [Compound 0MTK266, 2,4,6-trihydroxy-N-(4-(4-(pyridin-4-yl)phenoxy)phenethyl)benzamide] | 1200 nM | – | 5100 nM
O=C(NCCc1ccc(Oc2ccc(-c3cccnc3)cc2)cc1)c1c(O)cc(O)cc1O [Compound 0MTK267, 2,4,6-trihydroxy-N-(4-(4-(pyridin-3-yl)phenoxy)phenethyl)benzamide] | 300 nM | – | 1700 nM
O=C(NC1CC1)c1cccc(Oc2ccc(CCNC(=O)c3c(O)cc(O)cc3O)cc2)c1 [Compound 0MTK268, N-(4-(3-(cyclopropylcarbamoyl)phenoxy)phenethyl)-2,4,6-trihydroxybenzamide] | 800 nM | – | 2900 nM
O=C(NCCc1ccc(Oc2cccc(-c3ccncc3)c2)cc1)c1c(O)cc(O)cc1O [Compound 0MTK269, 2,4,6-trihydroxy-N-(4-(3-(pyridin-4-yl)phenoxy)phenethyl)benzamide] | 700 nM | – | 3000 nM
